Experimental data reported in patent US11034960B2, “PKLR inhibition in the treatment of NAFLD and HCC” (ScandiEdge Therapeutics AB, priority 2017, dated 2021).

Columns and labels:
[1] = system: K562 cells; assay: RT-PCR gene expression in K562 cells after interference by C75 or PKLR-specific siRNA for 24 hours; assay type: cell-based, human; settings: C75 at different concentrations (0, 40, 60 μM), FIG. 2A
Method: (§1) RNA was isolated for RT-PCR after interference for 24 hours; GAPDH was set as the internal reference. Cell counting was performed after interference for 72 hours. Data are presented as the means±standard errors of five independent experiments. Comparisons were performed by one-way ANOVA. Samples without any interference were assigned as controls. * represents a significant difference compared with the value in the control group (P<0.05).
(§2) For subsequent experiments, K562 and HepG2, human immortalized myelogenous leukemia and hepatic cell lines, respectively, were selected. Both cell lines were cultured in RPMI-1640 medium (R2405, Sigma-Aldrich) supplemented with 10% fetal bovine serum (FBS, F2442, Sigma Aldrich) and incubated in 5% CO2 humidity at 37° C. […]
(§3) Total RNA was isolated with TRIzol reagent (15596026, Thermo Fisher Scientific) after treatment with C75 or siRNA for 24 hours. The expression profiles of key genes (FASN, PKLR in K562/HepG2, and PNPLA3, PCSK9 only in HepG2 cells) in the co-expression network were measured and analyzed via quantitative real-time PCR with iTaq Universal SYBR Green One-Step Kit (1725151, Bio-Rad), using anchored oligo (dT) primer based on CFX96™ detection system (Bio-Rad). […] Variation in cell proliferation was detected with a Cell Counting Kit-8 (CCK-8, CK04, Dojindo) after interference by C75/siRNA for 72 hours. […]

[2] = system: primary human hepatocytes; assay: mRNA expression in primary human hepatocytes treated with C75 (TaqMan real-time PCR); assay type: cell-based; settings: 40 μg/ml C75, 4, 6, 8 or 24 hours, FIG. 3F
Method: Human primary hepatocytes were purchased from Biopredic International. Twenty-four hours after arrival (48 hours after isolation), human hepatocytes were treated with 40 μg/ml of C75 or dimethyl sulfoxide (DMSO) for 4, 6, 8 or 24 hours.
Total RNA was isolated from human hepatocytes and snap-frozen mouse liver with an RNeasy Mini Kit (Qiagen). cDNA was synthesized with a high-capacity cDNA Reverse Transcription Kit (Applied Biosystems) and random primers. The mRNA expression levels of genes of interest were analyzed via TaqMan real-time PCR in a ViiATM7 System (Applied Biosystems). The TaqMan Gene Expression assays used were Mm01263610_m1 (for mouse Pcsk9), Mm00662319_m1 (mouse Fasn), Mm00443090_m1 (mouse Pklr), Mm00504420_m1 (mouse Pnpla3), Mm01282499_m1 (mouse Hmgcr), Hs00545399_m1 (human PCSK9), Hs01005622_m1 (human FASN), Hs00176075_m1 (human PKLR), Hs00228747_m1 (human PNPLA3), and Hs00168352_m1 (human HMGCR) (all from Applied Biosystems). Hprt (mouse Mm03024075_m1) and GADPH (human Hs02758991_g1) (Applied Biosystems) were used as internal controls.

[3] = system: K562 cells; assay: Cell growth of K562 cells (Cell Counting Kit-8) after interference for 72 hours; assay type: cell-based, human; settings: C75 (0, 20, 40, 60, 80 μM), FIG. 2B
Method: as §1, §2, §3

[4] = system: HepG2 cells; assay: Cell growth of HepG2 cells (Cell Counting Kit-8) after interference for 72 hours; assay type: cell-based, human; settings: different concentrations of C75 (0, 20, 40, 60, 80 μM), FIG. 2D
Method: as §1, §2, §3

[5] = system: HepG2 cells; assay: RT-PCR gene expression in HepG2 cells after interference by C75 or PKLR-specific siRNA for 24 hours; assay type: cell-based, human; settings: C75 (0, 40, 60 μM), FIG. 2C
Method: as §1
For subsequent experiments, K562 and HepG2, human immortalized myelogenous leukemia and hepatic cell lines, respectively, were selected. Both cell lines were cultured in RPMI-1640 medium (R2405, Sigma-Aldrich) supplemented with 10% fetal bovine serum (FBS, F2442, Sigma Aldrich) and incubated in 5% CO2 humidity at 37° C.
To confirm the speculated CN, chemical inhibitors and RNA interference (RNAi) assays were chosen to interfere with the immortalized cell lines (including K562 and HepG2) and the subsequent candidate gene expression and cell growth patterns were observed. More specifically, the experimental protocol was as follows: (1) C75 (C5490, Sigma-Aldrich), as a well-known fatty acid synthase [FAS] inhibitor, was added to cells at 80% confluence with a final concentration of 20, 40, 60, or 80 μM (taking cells without C75 interference as the control); (2) cells at 80% confluence were separately transfected with […] of Silencer® pre-designed PKLR-targeted siRNAs (clone ID: 53 (SEQ ID NO:2 and SEQ ID NO:3), 54 (SEQ ID NO:2 and SEQ ID NO:5), Life Technologies) at 15 nM by using Lipofectamine® RNAiMAX (13778075, Life Technologies). Cells incubated in medium with non-target negative control siRNA at 15 nM (4390843, Life Technologies) were assigned as the control.
Total RNA was isolated with TRIzol reagent (15596026, Thermo Fisher Scientific) after treatment with C75 or siRNA for 24 hours. The expression profiles of key genes (FASN, PKLR in K562/HepG2, and PNPLA3, PCSK9 only in HepG2 cells) in the co-expression network were measured and analyzed via quantitative real-time PCR with iTaq Universal SYBR Green One-Step Kit (1725151, Bio-Rad), using anchored oligo (dT) primer based on CFX96™ detection system (Bio-Rad). GAPDH was set as the internal control for normalization. The primer sequences were SEQ ID NO:9 (FASN forward), SEQ ID NO:10 (FASN reverse), SEQ ID NO:11 (PKLR forward), SEQ ID NO:12 (PKLR reverse), SEQ ID NO:13 (PNPLA3 forward), SEQ ID NO:14 (PNPLA3 reverse), SEQ ID NO:15 (PCSK9 forward), SEQ ID NO:16 (PCSK9 reverse), SEQ ID NO:17 (GAPDH forward) and SEQ ID NO:18 (GAPDH reverse). Variation in cell proliferation was detected with a Cell Counting Kit-8 (CCK-8, CK04, Dojindo) after interference by C75/siRNA for 72 hours. […]

[6] = system: HepG2 cells; assay: Lipidomics measurement of triglycerides in HepG2 cells with PKLR downregulation; assay type: cell-based, human
Method: To better clarify the genetic impact of PKLR on lipid deposition, cells were treated by siRNA and then tested by mass spectrometer for lipidomics data, sequentially. To be specific, HepG2 cells were transfected by siRNA (Assay ID: 53 with target on PKLR, applied by aforementioned method) for 72 hours and then harvested for lipidomics measurement. Correspondingly, cells treated with non-targeting siRNA (4390843, Thermo Fisher Scientific, USA) were assigned as control.
For lipidomics measurement, cells were extracted using butanol/methanol (BUME) as previously described (Lofgren et al., 2012). Internal standards (either deuterated or containing heptadecanoyl (C17:0) fatty acids) were added during the extraction. Analysis of triacylglycerols and phosphatidylcholines were made using direct infusion on a QTRAP 5500 mass spectrometer (Sciex, Concord, Canada) equipped with a robotic nanoflow ion source, the TriVersa NanoMate (Advion BioSciences, Ithaca, N.J.). Detection of triacylglycerols was made using neutral loss scanning in positive mode (Murphy et al., 2007). Phosphatidylcholines were analyzed in positive mode using m/z 184 (phosphocholine) as fragment ion (Brugger et al., 1997).

[7] = system: PKLR; assay: qPCR of target gene expression in HepG2 cells after siRNA or expression plasmid transfection; assay type: cell-based, human; settings: siRNA 50 nM, 72 hours, P<0.05
Method: HepG2 cell line was purchased from ATCC and selected for subsequent genetic modification. Cells were routinely cultured in humidified incubator with 5% CO2 at 37°. Cells were maintained by RPMI 1640 medium (R2405, Sigma-Aldrich) with 10% fetal bovine serum (FBS, F7524, Sigma-Aldrich).
For downregulation of target genes, PKLR, PNPLA3, and PCSK9, RNAi experiment was performed by silencer predesigned siRNA kit (Assay ID: 53 for PKLR, 121938 for PNPLA3 and 103966 for PCSK9, Thermo Fisher Scientific, USA). According to the manufacturer's instructions, HepG2 cells were treated by specific siRNA at 50 nM of final concentration using reverse transfection on the help of Lipofectamine RNAiMAX for 72 hours. Negative Control for transfection (4390843, Thermo Fisher Scientific, USA) was selected as standard for comparison from the same company. […]
Cells were treated for experiment when they were grown to 80% confluence. […] Expressions of target genes were validated by quantitative real-time PCR (Schmittgen and Livak, 2008). […] And the relative expression of each gene was calculated by 2-ΔΔCT method described before (Schmittgen and Livak, 2008). β-actin was selected as internal reference gene for normalization.
All results of measurement were presented/shown by mean±SD and One-way ANOVA was applied for comparisons in quantitative covariates. […]

`C=C1C(=O)OC(CCCCCCCC)C1C(=O)O` (stereo not shown) [C75] was tested, and the FASN expression level [1] was “significantly decreased”, the PKLR expression level [1] was “significantly decreased” and the “expression of FASN in relation to expression of PKLR, PCSK9, PNPLA3” value [2] was “interconnected”. The cell growth [3] was “significant decrease”, the cell growth [4] was “significantly decreased” and the FASN expression level [5] was “significantly decreased”. For the same compound, the PCSK9 expression level [5] was “significantly decreased”, the PKLR expression level [5] was “significantly decreased” and the PNPLA3 expression level [5] was “significantly decreased”.

In the case of “siRNA 53: PKLR-targeted Silencer pre-designed siRNA; sense sequence SEQ ID NO:5, antisense sequence SEQ ID NO:6 (sense GGAGAUGAUCAAGGCCGGGTT; antisense CCCGGCCUUGAUCAUCUCCTT; chemistry not given here; listed as Homo sapiens)”, the “decrease of total triglyceride compared to negative control” value ([6]; after adjusting based on the phosphatidylcholines levels) is reported as “about 15%”, the triglyceride level ([6]; siRNA 72 hours vs non-targeting negative control, P<0.05) is reported as “significant decrease” and the “total triglyceride adjusted based on the phosphatidylcholines levels” value ([6]; siRNA 72 hours, negative control 555.0±51.2) is reported as 471.7±45.5. For the same compound, the “inhibitory rate of PKLR expression (down-regulation vs negative control)” value [7] was 96%.
